Results: ChEMBL document CHEMBL1136440, “Design and synthesis of novel RXR-selective modulators with improved pharmacological profile” (Bioorg Med Chem Lett, 2003)

Legend:
[1] = biological target: T1, Retinoic acid receptor alpha (Homo sapiens) (UniProt P10276); test: Agonist synergy against RAR alpha was tested along with 3 nM TTNPB; assay type: functional; conditions: Cercopithecidae
T1 sequence (whole entry): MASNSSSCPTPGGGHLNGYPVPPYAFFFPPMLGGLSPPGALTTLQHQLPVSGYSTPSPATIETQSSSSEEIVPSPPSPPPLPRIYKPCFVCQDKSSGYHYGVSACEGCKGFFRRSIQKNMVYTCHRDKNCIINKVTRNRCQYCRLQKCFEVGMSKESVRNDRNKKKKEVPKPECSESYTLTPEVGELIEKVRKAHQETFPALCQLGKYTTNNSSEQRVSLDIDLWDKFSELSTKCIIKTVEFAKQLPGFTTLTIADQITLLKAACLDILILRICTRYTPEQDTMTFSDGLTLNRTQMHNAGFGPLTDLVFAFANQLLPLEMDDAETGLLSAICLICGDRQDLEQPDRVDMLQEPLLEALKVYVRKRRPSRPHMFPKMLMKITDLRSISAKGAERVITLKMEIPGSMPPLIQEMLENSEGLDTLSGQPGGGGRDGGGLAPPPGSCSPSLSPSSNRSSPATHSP

[2] = biological target: T2, Retinoic acid receptor alpha (Homo sapiens, UniProt P10276); test: Binding affinity against RAR alpha receptor using [3H]ATRA as radioligand in CV-1 cells; assay type: cell-based, Cercopithecidae
T2 sequence (P10276 whole entry): T1 sequence (whole entry)

[3] = biological target: T3, Retinoic acid receptor beta (Homo sapiens, UniProt P10826); test: Binding affinity against RAR beta receptor using [3H]ATRA as radioligand in CV-1 cells; assay type: cell-based, Cercopithecidae
T3 sequence (P10826 whole entry): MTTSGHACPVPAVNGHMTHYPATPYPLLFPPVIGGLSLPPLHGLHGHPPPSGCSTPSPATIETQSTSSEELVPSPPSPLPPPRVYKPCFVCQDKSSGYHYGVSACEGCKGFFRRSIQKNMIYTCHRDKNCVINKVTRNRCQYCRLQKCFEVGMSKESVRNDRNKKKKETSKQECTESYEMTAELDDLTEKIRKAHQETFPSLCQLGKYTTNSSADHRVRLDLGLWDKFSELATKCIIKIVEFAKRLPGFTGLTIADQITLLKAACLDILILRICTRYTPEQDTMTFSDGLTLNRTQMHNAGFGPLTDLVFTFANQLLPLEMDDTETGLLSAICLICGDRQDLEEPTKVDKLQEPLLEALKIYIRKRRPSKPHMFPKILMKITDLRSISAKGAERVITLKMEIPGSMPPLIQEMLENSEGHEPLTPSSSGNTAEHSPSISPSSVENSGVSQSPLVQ

[4] = biological target: T4, Retinoic acid receptor RXR-alpha (Homo sapiens, UniProt P19793); test: biochemical
T4 sequence (P19793 whole entry): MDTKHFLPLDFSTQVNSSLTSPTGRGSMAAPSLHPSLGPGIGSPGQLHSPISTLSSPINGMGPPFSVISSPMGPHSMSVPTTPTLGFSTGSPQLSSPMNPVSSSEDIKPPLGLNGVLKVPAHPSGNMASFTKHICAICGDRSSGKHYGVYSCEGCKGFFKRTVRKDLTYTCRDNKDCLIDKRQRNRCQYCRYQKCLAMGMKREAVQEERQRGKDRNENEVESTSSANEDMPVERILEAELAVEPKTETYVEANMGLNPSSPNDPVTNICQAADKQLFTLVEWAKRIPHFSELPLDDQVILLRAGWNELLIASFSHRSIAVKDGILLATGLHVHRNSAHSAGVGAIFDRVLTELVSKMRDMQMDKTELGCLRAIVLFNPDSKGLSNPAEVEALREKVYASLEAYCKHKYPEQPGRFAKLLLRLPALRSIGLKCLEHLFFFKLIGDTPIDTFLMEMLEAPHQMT
Description: Binding affinity against RXR alpha receptor using [3H]9-cis-RA as radioligand in CV-1 cells

[5] = biological target: T5, Retinoic acid receptor RXR-beta (Homo sapiens, UniProt P28702); test: Displacement of [3H]9-cis-RA from RXR beta receptor in CV-1 cells; assay type: cell-based, Cercopithecidae
T5 sequence (P28702 whole entry): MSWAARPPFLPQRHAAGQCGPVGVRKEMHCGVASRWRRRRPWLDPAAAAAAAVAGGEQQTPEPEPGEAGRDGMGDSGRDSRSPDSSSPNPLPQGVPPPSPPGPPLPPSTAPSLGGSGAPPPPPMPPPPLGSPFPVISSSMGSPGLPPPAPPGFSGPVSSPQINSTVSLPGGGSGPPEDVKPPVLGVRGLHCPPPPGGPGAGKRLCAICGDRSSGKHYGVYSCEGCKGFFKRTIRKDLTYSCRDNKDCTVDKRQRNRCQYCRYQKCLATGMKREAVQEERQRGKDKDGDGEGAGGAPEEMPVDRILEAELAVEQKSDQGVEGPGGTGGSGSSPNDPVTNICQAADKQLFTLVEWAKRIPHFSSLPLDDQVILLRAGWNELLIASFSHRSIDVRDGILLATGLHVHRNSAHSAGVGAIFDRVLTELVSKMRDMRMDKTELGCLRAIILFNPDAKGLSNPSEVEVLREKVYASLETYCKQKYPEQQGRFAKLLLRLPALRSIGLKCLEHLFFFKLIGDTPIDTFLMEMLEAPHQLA

[6] = biological target: T6, Peroxisome proliferator-activated receptor gamma (Homo sapiens, UniProt P37231)
T6 sequence (P37231 whole entry): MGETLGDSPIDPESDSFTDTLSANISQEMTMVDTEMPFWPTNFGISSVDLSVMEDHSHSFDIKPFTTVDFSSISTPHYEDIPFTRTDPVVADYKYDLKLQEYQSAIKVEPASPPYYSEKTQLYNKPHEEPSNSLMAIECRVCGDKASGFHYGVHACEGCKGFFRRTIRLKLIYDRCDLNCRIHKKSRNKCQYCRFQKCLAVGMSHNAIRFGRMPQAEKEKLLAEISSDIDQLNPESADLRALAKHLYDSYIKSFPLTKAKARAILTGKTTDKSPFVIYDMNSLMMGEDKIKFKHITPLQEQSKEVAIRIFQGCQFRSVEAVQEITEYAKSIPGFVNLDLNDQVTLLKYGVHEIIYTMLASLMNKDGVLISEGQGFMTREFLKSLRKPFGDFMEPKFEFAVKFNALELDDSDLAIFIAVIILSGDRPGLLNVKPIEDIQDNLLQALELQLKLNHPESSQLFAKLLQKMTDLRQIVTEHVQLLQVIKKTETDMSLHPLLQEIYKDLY
Description: In vitro agonist efficacy against PPAR gamma along with 100 nM BRL-49653

[7] = biological target: T4, Retinoic acid receptor RXR-alpha; test: In vitro antagonist activity against RXR alpha in CV-1 cells; assay type: functional, cell-based, Cercopithecidae
[8] = biological target: T6, Peroxisome proliferator-activated receptor gamma; remark: listed apart in the source
Description: In vitro agonistic activity against PPAR gamma along with 100 nM BRL-49653

[9] = biological target: T7, Retinoic acid receptor gamma (Homo sapiens, UniProt P13631); test: Binding affinity against RAR gamma receptor using [3H]ATRA as radioligand in CV-1 cells; assay type: cell-based, Cercopithecidae
T7 sequence (P13631 whole entry): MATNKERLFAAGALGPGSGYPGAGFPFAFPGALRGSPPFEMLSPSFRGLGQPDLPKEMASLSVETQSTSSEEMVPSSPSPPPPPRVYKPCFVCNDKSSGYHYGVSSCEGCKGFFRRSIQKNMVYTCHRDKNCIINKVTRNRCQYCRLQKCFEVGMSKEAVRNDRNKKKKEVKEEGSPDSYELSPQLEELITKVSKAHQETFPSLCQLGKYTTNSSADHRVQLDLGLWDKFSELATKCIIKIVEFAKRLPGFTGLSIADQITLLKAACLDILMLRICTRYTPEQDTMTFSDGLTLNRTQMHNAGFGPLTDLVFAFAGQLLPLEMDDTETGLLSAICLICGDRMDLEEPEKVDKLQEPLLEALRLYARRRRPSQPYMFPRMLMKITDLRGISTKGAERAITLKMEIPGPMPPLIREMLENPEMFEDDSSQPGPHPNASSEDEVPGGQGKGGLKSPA

[10] = biological target: T8, Retinoic acid receptor RXR-gamma (Homo sapiens, UniProt P48443); test: Binding affinity against RXR gamma receptor using [3H]9-cis-RA as radioligand in CV-1 cells; assay type: cell-based, Cercopithecidae
T8 sequence (P48443 whole entry): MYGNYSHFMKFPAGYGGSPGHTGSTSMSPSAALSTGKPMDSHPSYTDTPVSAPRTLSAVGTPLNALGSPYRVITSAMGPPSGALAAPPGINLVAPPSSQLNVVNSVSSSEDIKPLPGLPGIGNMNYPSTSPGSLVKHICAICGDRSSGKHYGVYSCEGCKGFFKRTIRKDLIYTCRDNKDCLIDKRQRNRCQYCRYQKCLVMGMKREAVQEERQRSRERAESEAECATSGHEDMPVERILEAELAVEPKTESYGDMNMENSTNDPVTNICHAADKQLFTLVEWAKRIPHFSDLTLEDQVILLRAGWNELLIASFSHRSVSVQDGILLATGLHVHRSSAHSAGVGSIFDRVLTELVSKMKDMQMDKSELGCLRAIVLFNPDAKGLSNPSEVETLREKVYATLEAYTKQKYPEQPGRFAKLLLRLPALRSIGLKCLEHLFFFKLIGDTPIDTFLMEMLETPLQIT

SMILES: C/C(=C/C=C/C(C)=C/C(=O)O)c1cc(-c2cccs2)cc(C(C)C)c1OCC(F)F
- Synergy [1]: 1.4 nM
- Ki [2]: 4550 nM
- Ki [3]: 2110 nM
- Ki [4]: 0.8 nM
- Ki [5]: 3.9 nM
- EC50 [6]: 15 nM
- IC50 [7]: 1.9 nM
- EC50 [8]: 4.7 nM
- Ki [9]: > 10000 nM
- Ki [10]: 5.6 nM

SMILES: CCC(C)(C)c1cc(\C(C)=C(F)/C=C/C(C)=C/C(=O)O)c(OCC(F)F)c(C(C)(C)CC)c1
- Synergy [1]: 1.5 nM
- Ki [2]: 6590 nM
- Ki [3]: 5330 nM
- Ki [4]: 28.7 nM
- Ki [5]: 5.2 nM
- EC50 [6]: 51 nM
- IC50 [7]: 13.7 nM
- EC50 [8]: 2.7 nM
- Ki [9]: > 10000 nM
- Ki [10]: 40.3 nM

SMILES: CCCOc1c(\C(C)=C/C=C/C(C)=C/C(=O)O)cc(C(F)(F)C(F)(F)F)cc1C(C)C
- Synergy [1]: 1.4 nM
- Ki [2]: 2500 nM
- Ki [3]: 1980 nM
- Ki [4]: 25.6 nM
- Ki [5]: 17.2 nM
- EC50 [6]: 59 nM
- IC50 [7]: 5.1 nM
- EC50 [8]: 2.7 nM
- Ki [9]: > 1000 nM
- Ki [10]: 27.6 nM

SMILES: C/C(=C/C=C/C(C)=C/C(=O)O)c1cc(-c2ccc(F)cc2)cc(C(C)C)c1OCC(F)F
- Synergy [1]: 1.1 nM
- Ki [2]: 4550 nM
- Ki [3]: 2110 nM
- Ki [4]: 0.8 nM
- Ki [5]: 3.9 nM
- EC50 [6]: 32 nM
- IC50 [7]: 2.2 nM
- EC50 [8]: 1.3 nM
- Ki [9]: > 10000 nM
- Ki [10]: 5.6 nM

SMILES: CCCCOc1c(\C(C)=C(F)/C=C/C(C)=C/C(=O)O)cc(C(C)C)cc1C(C)C
- Synergy [1]: 1.5 nM
- Ki [2]: 3730 nM
- Ki [3]: 4620 nM
- Ki [4]: 4.4 nM
- Ki [5]: 24.4 nM
- EC50 [6]: 47 nM
- IC50 [7]: 4.7 nM
- EC50 [8]: 4.1 nM
- Ki [9]: > 10000 nM
- Ki [10]: 27.8 nM

SMILES: C/C(=C/C=C/C(C)=C/C(=O)O)c1cc(-c2cccc(F)c2)cc(C(C)C)c1OCC(F)F
- Synergy [1]: 1.6 nM
- Ki [2]: > 10000 nM
- Ki [3]: 3600 nM
- Ki [4]: 1 nM
- Ki [5]: 7.4 nM
- EC50 [6]: 36 nM
- IC50 [7]: 3.9 nM
- EC50 [8]: 0.8 nM
- Ki [9]: > 10000 nM
- Ki [10]: 2.9 nM
